The record followed here is the NIST ThermoML archive (doi:10.1016/j.jct.2015.08.035).

Numbers after ± are expanded uncertainties.

For data set [1] the following is noted: Crystal; DTA.
Data set [2] is described as follows: Molar enthalpy of transition or fusion. To be noted: Crystal; DSC.

With `CC1=C(O)C(=O)C(C)O1` (configuration not stated) [4-hydroxy-2,5-dimethyl-3(2H)-furanone], in data set [1], the Normal melting temperature stood at 82.07 ± 1.1 °C. For the same compound, the “Molar enthalpy of transition or fusion” value in data set [2] is 4.47 ± 0.263 kcal/mol.
